Test results taken from patent publication US20250206754A1, “PAN-CHEMOKINE ANTAGONISTS FOR USE IN TREATING CANCER AND IMMUNE DISORDERS” ("Micar Innovation" LTD., priority 2022, published 2025).
Values joined by “and” are separate entries in the source; they are usually repeats but may differ in a detail not shown here. Identical values can stand only once. Like-named read-outs stand apart in the source and are kept apart here.

How the values were obtained:
[1] = target: CCR5 (Homo sapiens, UniProt P51681); assay: β-arrestin selectivity assay, CCR5; assay type: cell-based
CCR5, sequence (P51681 whole entry): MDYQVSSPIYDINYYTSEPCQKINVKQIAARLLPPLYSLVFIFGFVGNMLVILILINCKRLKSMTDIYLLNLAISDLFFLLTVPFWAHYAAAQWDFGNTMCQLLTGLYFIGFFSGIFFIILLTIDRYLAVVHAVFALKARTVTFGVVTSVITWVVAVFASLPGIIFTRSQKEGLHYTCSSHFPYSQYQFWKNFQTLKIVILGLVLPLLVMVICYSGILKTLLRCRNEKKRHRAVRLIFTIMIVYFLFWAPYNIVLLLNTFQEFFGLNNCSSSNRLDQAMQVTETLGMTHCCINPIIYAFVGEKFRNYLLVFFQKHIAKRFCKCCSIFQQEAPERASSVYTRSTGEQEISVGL

[2] = target: CCR2 (Homo sapiens, UniProt P41597); assay: β-arrestin selectivity assay, CCR2; assay type: cell-based
CCR2, sequence (P41597 whole entry): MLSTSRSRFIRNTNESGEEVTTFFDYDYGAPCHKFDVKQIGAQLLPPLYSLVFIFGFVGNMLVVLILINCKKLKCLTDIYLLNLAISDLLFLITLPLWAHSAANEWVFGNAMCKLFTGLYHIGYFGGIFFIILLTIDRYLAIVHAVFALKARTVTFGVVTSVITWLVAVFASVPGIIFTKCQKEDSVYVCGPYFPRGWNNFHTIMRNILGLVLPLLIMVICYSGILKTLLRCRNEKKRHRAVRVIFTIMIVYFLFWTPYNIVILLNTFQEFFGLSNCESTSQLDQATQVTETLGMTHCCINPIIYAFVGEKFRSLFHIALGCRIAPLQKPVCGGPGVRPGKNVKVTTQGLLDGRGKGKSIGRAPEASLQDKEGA

[3] = target: T1, CCR3 (Homo sapiens, UniProt P51677); assay: β-arrestin selectivity assay, CCR3; assay type: cell-based
T1 sequence (P51677 1-355): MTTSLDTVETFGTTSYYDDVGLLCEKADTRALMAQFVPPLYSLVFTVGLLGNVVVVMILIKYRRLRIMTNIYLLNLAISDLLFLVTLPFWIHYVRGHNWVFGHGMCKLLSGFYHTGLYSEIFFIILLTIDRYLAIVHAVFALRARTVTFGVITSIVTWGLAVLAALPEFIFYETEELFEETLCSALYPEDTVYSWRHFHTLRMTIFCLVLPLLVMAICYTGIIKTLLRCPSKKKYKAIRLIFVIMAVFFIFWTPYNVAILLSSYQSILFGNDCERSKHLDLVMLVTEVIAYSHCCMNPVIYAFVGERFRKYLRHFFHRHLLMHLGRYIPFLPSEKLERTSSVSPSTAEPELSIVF

[4] = target: T2, CCR1 (Homo sapiens, UniProt P32246); assay: β-arrestin selectivity assay, CCR1; assay type: cell-based
T2 sequence (P32246 1-355): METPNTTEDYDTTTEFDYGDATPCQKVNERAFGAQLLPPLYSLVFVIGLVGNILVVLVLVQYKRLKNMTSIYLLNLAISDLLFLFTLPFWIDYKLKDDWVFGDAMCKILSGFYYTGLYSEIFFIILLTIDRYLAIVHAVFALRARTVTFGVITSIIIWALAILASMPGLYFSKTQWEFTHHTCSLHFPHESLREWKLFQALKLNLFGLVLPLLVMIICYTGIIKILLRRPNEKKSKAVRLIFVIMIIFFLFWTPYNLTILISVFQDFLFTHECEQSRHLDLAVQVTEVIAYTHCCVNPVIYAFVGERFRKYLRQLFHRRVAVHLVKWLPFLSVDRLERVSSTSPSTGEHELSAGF

[5] = target: CXCR4 (Homo sapiens, UniProt P61073); assay: Ca^2+ mobilization assay, CXCR4; assay type: cell-based
CXCR4, sequence (P61073 whole entry): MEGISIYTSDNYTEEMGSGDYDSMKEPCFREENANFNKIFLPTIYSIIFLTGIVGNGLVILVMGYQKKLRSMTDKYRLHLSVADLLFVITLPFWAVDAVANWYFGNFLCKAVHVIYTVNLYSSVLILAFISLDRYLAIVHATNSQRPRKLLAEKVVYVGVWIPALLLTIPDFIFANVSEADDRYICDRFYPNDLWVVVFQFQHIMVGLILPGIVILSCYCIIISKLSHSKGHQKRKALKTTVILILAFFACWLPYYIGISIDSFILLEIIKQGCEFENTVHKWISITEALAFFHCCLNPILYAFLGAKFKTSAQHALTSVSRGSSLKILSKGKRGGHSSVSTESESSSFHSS
Method: MIC5023. The synthesis path of MIC5023 is shown on Scheme 1. It consists of 5 chemical transformation in order the final product to be obtained. Two chlorine atoms were added to aromatic rings of MIC5022, and also one methyl group, which makes MIC5023 a close derivative of MIC5022. […] The Ca^2+ mobilization assays retrieved a value of IC50 of about 30 μM and similar for CXCR4; i.e. less than those observed for Hit 1 (MIC5022). MIC5024. The synthesis path of MIC5024 is shown on Scheme 2. It consists of 4 chemical transformation in order the final product to be obtained. The difference between MIC5023 and MIC5024 is only one methyl group introduced in the central five member aromatic ring but it decreased the β-arrestin activity of MIC5024 to CCR1, CCR2 and CCR3 below 30 μM. […] The Ca^2+ mobilization assays retrieved values of IC50>50 μM for CCR7 and CXCR4. Thus, it became evident that this methyl substitution is less sensitive only to CCR3 and CCR5.

[6] = target: T3, CCR7 (Homo sapiens, UniProt P32248); assay: Ca^2+ mobilization assay, CCR7; assay type: cell-based; conditions: Ca^2+ mobilization assay, CCR7
T3 construct: expressed in transfected cells
T3 sequence (P32248 25-378): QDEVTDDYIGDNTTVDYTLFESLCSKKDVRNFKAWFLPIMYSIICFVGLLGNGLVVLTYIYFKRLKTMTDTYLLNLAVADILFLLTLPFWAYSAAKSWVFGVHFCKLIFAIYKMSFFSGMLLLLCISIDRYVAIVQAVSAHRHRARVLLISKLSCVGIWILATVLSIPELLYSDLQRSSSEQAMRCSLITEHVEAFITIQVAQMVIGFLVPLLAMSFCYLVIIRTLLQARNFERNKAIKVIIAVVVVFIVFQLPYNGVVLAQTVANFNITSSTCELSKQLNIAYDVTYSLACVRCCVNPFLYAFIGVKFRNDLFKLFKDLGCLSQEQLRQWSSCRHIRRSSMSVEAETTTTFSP
Method: Selected compounds were initially sent for both antagonist and agonist TANGO β-arrestin assays. […] Replacement only on the amide group with CN led to strong activity decrease in β-arrestin assay: only 31% activity at about 30 μM and similar one at 100 μM (Table 1). Five more derivatives with replaced amide group were also tested in parallel by Ca^2+ mobilization assay and they all were not active up to the tested concertation of 100 μM.
To examine the colloid aggregation possibility a β-lactamase enzymatic activity counterscreen assay was performed, which is the commonly adopted tool for detection of such properties of the compounds.

[7] = target: T3, CCR7; conditions: β-arrestin related assay, CCR7, reference [2]; cited from earlier work

| Compound | IC50 [1] | IC50 [2] | IC50 [3] | IC50 [4] | IC50 [5] | IC50 [6] | IC50 [7] |
| --- | --- | --- | --- | --- | --- | --- | --- |
| Cc1nc(Oc2c(Cl)cccc2C(N)=O)c2cc(-c3ccccc3Cl)sc2n1 [MIC5024, 3-chloro-2-{[6-(2-chlorophenyl)-2-methylthieno[2,3-d]pyrimidin-4-yl]oxy}benzamide] | 7.2 µM | < 30 µM | < 30 µM and 7.2 µM | < 30 µM | > 50 µM | > 50 µM |  |
| Cosaline |  |  |  |  |  |  | 0.2 µM |
| Cc1nc(Oc2c(Cl)cccc2C(N)=O)c2c(C)c(-c3ccccc3Cl)sc2n1 [MIC5023, 3-chloro-2-{[6-(2-chlorophenyl)-2,5-dimethylthieno[2,3-d]pyrimidin-4-yl]oxy}benzamide] | 2.1 µM | 31.5 µM | > 9.5 µM | > 30 µM | ~30 µM | ~30 µM |  |
